{"source": "patent US6562848B1", "about": "“Bis-amino acid sulfonamides as HIV protease inhibitors” (Bristol-Myers Squibb Company, priority 2001, dated 2003)"}
{"smiles": "CC(C)CN(C[C@@H](O)[C@H](Cc1ccccc1)NC(=O)[C@@H](NC(=O)CNC(=O)C(C)C)C(C)(C)C)S(=O)(=O)c1ccc2c(c1)OCO2", "note": "(stereo in doubt)", "values": [{"measurement": "melting point", "value": "205 to 206", "unit": "°C"}]}
